Measured values taken from patent US8222404B2, “[1,2,4]Thiadiazin-3-yl acetic acid compound and methods of making the acetic acid compound” (Anadys Pharmaceuticals, Inc., priority 2008, dated 2012).

These compounds were tested on HCV Huh-luc/neo-ET replicon cells (assay: Luciferase-Based HCV Replicon Assay (EC50 (1b))). Conditions: Hepatitis C virus, 72 hours exposure, luciferase activity.
Type: cell-based
Procedure, shortened: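 EC50 (1b) derived from % inhibition of luciferase signal relative to untreated cells, background set by 100 nM BILN-2061 (protease inhibitor). Triplicate dose series added to replicon cells 24 h post-seeding; luminescence measured after 72 h compound exposure.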

**Q.** `CC(C)CCN1C(=O)C(C2=NS(=O)(=O)c3c(CNS(C)(=O)=O)csc3N2)=C(O)C2CCCCCC21` (racemic) [Example 138, (rac-cis)-N-{3-[4-Hydroxy-1-(3-methyl-butyl)-2-oxo-2,4a,5,6,7,8,9,9a-octahydro-1H-cyclohepta[b]pyridin-3-yl]-1,1-dioxo-1,4-dihydro-1λ^6-thieno[2,3-e][1,2,4]thiadiazin-7-ylmethyl}-methanesulfonamide] was tested. Which EC50 did it give?
**A.** 20 to 100 nM

**Q.** `Cc1cc(CN2C(=O)C(C3=NS(=O)(=O)c4c(CNS(C)(=O)=O)csc4N3)=C(O)C3CCCCCC32)ccc1F` (racemic) [Example 139, (rac-cis)-N-{3-[1-(4-Fluoro-3-methyl-benzyl)-4-hydroxy-2-oxo-2,4a,5,6,7,8,9,9a-octahydro-1H-cyclohepta[b]pyridin-3-yl]-1,1-dioxo-1,4-dihydro-1λ^6-thieno[2,3-e][1,2,4]thiadiazin-7-ylmethyl}-methanesulfonamide] was tested. Which EC50 did it give?
**A.** > 1000 nM

**Q.** Which EC50 does the source give for `CS(=O)(=O)NCc1csc2c1S(=O)(=O)N=C(C1=C(O)C3CCCCCC3N(Cc3cc(F)c(F)c(F)c3)C1=O)N2` (racemic) [Example 140, (rac-cis)-N-{3-[4-Hydroxy-2-oxo-1-(3,4,5-trifluoro-benzyl)-2,4a,5,6,7,8,9,9a-octahydro-1H-cyclohepta[b]pyridin-3-yl]-1,1-dioxo-1,4-dihydro-1λ^6-thieno[2,3-e][1,2,4]thiadiazin-7-ylmethyl}-methanesulfonamide] here?
**A.** > 1000 nM

**Q.** How did the EC50 turn out when `CS(=O)(=O)NCc1csc2c1S(=O)(=O)N=C(C1=C(O)C3CCCCCC3N(Cc3ccsc3)C1=O)N2` (racemic) [Example 141, (rac-cis)-N-[3-(4-Hydroxy-2-oxo-1-thiophen-3-ylmethyl-2,4a,5,6,7,8,9,9a-octahydro-1H-cyclohepta[b]pyridin-3-yl)-1,1-dioxo-1,4-dihydro-1λ^6-thieno[2,3-e][1,2,4]thiadiazin-7-ylmethyl]-methanesulfonamide] was run?
**A.** > 1000 nM

**Q.** For `CS(=O)(=O)NCc1csc2c1S(=O)(=O)N=C(C1=C(O)C3C4CCCC(CC4)C3N(Cc3ccc(F)cc3)C1=O)N2` (racemic) [Example 142, (rac-di-exo)-N-{3-[3-(4-Fluoro-benzyl)-6-hydroxy-4-oxo-3-aza-tricyclo[6.3.2.0^2,7]tridec-5-en-5-yl]-1,1-dioxo-1,4-dihydro-1λ^6-thieno[2,3-e][1,2,4]thiadiazin-7-ylmethyl}-methanesulfonamide], which EC50 is on record?
**A.** 20 to 100 nM

**Q.** For `CS(=O)(=O)NCc1csc2c1S(=O)(=O)N=C(C1=C(O)[C@@H]3[C@H]4CC[C@H](C4)[C@@H]3N(Cc3ccc(F)cc3)C1=O)N2` [Example 1, (1R,2S,7R,8S)—N-{3-[3-(4-Fluoro-benzyl)-6-hydroxy-4-oxo-3-aza-tricyclo[6.2.1.0^2,7]undec-5-en-5-yl]-1,1-dioxo-1,4-dihydro-1λ^6-thieno[2,3-e][1,2,4]thiadiazin-7-ylmethyl}-methanesulfonamide], which EC50 is on record?
**A.** ≤ 5 nM

**Q.** For `CS(=O)(=O)NCc1ccc2c(c1)S(=O)(=O)N=C(C1=C(O)[C@@H]3[C@H]4CC[C@H](C4)[C@@H]3N(Cc3ccc(F)cc3)C1=O)N2` [Example 3, N-{3-[(1R,2S,7R,8S)-3-(4-Fluoro-benzyl)-6-hydroxy-4-oxo-3-aza-tricyclo[6.2.1.0^2,7]undec-5-en-5-yl]-1,1-dioxo-1,4-dihydro-1λ^6-benzo[1,2,4]thiadiazin-7-ylmethyl}-methanesulfonamide], which EC50 is on record?
**A.** 100 to 1000 nM

**Q.** With `CS(=O)(=O)NCc1csc2c1S(=O)(=O)N=C(C1=C(O)C3(CC3)CN(Cc3ccc(F)cc3)C1=O)N2` [Example 11, N-{3-[5-(4-Fluoro-benzyl)-8-hydroxy-6-oxo-5-aza-spiro[2.5]oct-7-en-7-yl]-1,1-dioxo-1,4-dihydro-1λ^6-thieno[2,3-e][1,2,4]thiadiazin-7-ylmethyl}-methanesulfonamide] as the compound, how does the EC50 read?
**A.** > 1000 nM

**Q.** With `CS(=O)(=O)NCc1csc2c1S(=O)(=O)N=C(C1=C(O)[C@@H]3[C@H]4CC[C@H](C4)[C@@H]3N(CCC3CCC3)C1=O)N2` [Example 26, N-{3-[(1R,2S,7R,8S)-3-(2-Cyclobutyl-ethyl)-6-hydroxy-4-oxo-3-aza-tricyclo[6.2.1.0^2,7]undec-5-en-5-yl]-1,1-dioxo-1,4-dihydro-1λ^6-thieno[2,3-e][1,2,4]thiadiazin-7-ylmethyl}-methanesulfonamide] as the compound, how does the EC50 read?
**A.** 20 to 100 nM

**Q.** `CC(C)CCn1nc(-c2cccs2)c(O)c(C2=NS(=O)(=O)c3c(CNS(C)(=O)=O)csc3N2)c1=O` [Example 28, N-{3-[5-Hydroxy-2-(3-methyl-butyl)-3-oxo-6-thiophen-2-yl-2,3-dihydro-pyridazin-4-yl]-1,1-dioxo-1,4-dihydro-1λ^6-thieno[2,3-e][1,2,4]thiadiazin-7-ylmethyl}-methanesulfonamide] was tested. Which EC50 did it give?
**A.** 100 to 1000 nM

**Q.** With `CS(=O)(=O)NCc1csc2c1S(=O)(=O)N=C(C1=C(O)[C@@H]3[C@H]4CC[C@H](C4)[C@@H]3N(CC3(C(F)(F)F)CC3)C1=O)N2` [Example 29, N-{3-[(1R,2S,7R,8S)-6-Hydroxy-4-oxo-3-(1-trifluoromethyl-cyclopropylmethyl)-3-aza-tricyclo[6.2.1.0^2,7]undec-5-en-5-yl]-1,1-dioxo-1,4-dihydro-1λ^6-thieno[2,3-e][1,2,4]thiadiazin-7-ylmethyl}-methanesulfonamide] as the compound, how does the EC50 read?
**A.** 5 to 20 nM

**Q.** For `CS(=O)(=O)NCc1csc2c1S(=O)(=O)N=C(C1=C(O)[C@@H]3[C@H]4CC[C@H](C4)[C@@H]3N(CCC3CCCC3)C1=O)N2` [Example 30, N-{3-[(1R,2S,7R,8S)-3-(2-Cyclopentyl-ethyl)-6-hydroxy-4-oxo-3-aza-tricyclo[6.2.1.0^2,7]undec-5-en-5-yl]-1,1-dioxo-1,4-dihydro-1λ^6-thieno[2,3-e][1,2,4]thiadiazin-7-ylmethyl}-methanesulfonamide], which EC50 is on record?
**A.** 20 to 100 nM

**Q.** How did the EC50 turn out when `CC(C)CCC1(C)CN(c2ccccc2)C(=O)C(C2=NS(=O)(=O)c3c(CNS(C)(=O)=O)csc3N2)=C1O` (stereo not drawn) [Example 31, N-{3-[4-Hydroxy-5-methyl-5-(3-methyl-butyl)-2-oxo-1-phenyl-1,2,5,6-tetrahydro-pyridin-3-yl]-1,1-dioxo-1,4-dihydro-1λ^6-thieno[2,3-e][1,2,4]thiadiazin-7-ylmethyl}-methanesulfonamide] was run?
**A.** > 1000 nM

**Q.** With `O=C1C(C2=NS(=O)(=O)c3c(CNS(=O)(=O)C4CC4)csc3N2)=C(O)[C@@H]2[C@H]3CC[C@H](C3)[C@@H]2N1Cc1ccc(F)cc1` [Example 33, Cyclopropanesulfonic acid {3-[(1R,2S,7R,8S)-3-(4-fluoro-benzyl)-6-hydroxy-4-oxo-3-aza-tricyclo[6.2.1.0^2,7]undec-5-en-5-yl]-1,1-dioxo-1,4-dihydro-1λ^6-thieno[2,3-e][1,2,4]thiadiazin-7-ylmethyl}-amide] as the compound, how does the EC50 read?
**A.** 5 to 20 nM

**Q.** Which EC50 does the source give for `NS(=O)(=O)NCc1csc2c1S(=O)(=O)N=C(C1=C(O)[C@@H]3[C@H]4CC[C@H](C4)[C@@H]3N(Cc3ccc(F)cc3)C1=O)N2` [Example 34, N-{3-[(1R,2S,7R,8S)-3-(4-Fluoro-benzyl)-6-hydroxy-4-oxo-3-aza-tricyclo[6.2.1.0^2,7]undec-5-en-5-yl]-1,1-dioxo-1,4-dihydro-1λ^6-thieno[2,3-e][1,2,4]thiadiazin-7-ylmethyl}-sulfamide] here?
**A.** 100 to 1000 nM

**Q.** How did the EC50 turn out when `CC(=O)NCc1csc2c1S(=O)(=O)N=C(C1=C(O)[C@@H]3[C@H]4CC[C@H](C4)[C@@H]3N(Cc3ccc(F)cc3)C1=O)N2` [Example 35, N-{3-[(1R,2S,7R,8S)-3-(4-Fluoro-benzyl)-6-hydroxy-4-oxo-3-aza-tricyclo[6.2.1.0^2,7]undec-5-en-5-yl]-1,1-dioxo-1,4-dihydro-1λ^6-thieno[2,3-e][1,2,4]thiadiazin-7-ylmethyl}-acetamide] was run?
**A.** 5 to 20 nM

**Q.** `COc1cc(CN2C(=O)C(C3=NS(=O)(=O)c4c(CNS(C)(=O)=O)csc4N3)=C(O)[C@@H]3C4CCC(CC4)[C@@H]32)ccc1F` [Example 36, N-{3-[(2S,7R)-3-(4-Fluoro-3-methoxy-benzyl)-6-hydroxy-4-oxo-3-aza-tricyclo[6.2.2.0^2,7]dodec-5-en-5-yl]-1,1-dioxo-1,4-dihydro-1λ^6-thieno[2,3-e][1,2,4]thiadiazin-7-ylmethyl}-methanesulfonamide] was tested. Which EC50 did it give?
**A.** ≤ 5 nM

**Q.** How did the EC50 turn out when `CS(=O)(=O)NCc1csc2c1S(=O)(=O)N=C(C1=C(O)[C@@H]3[C@H]4CC[C@H](C4)[C@@H]3N(Cc3ccc(F)c(Cl)c3)C1=O)N2` [Example 37, N-{3-[(1R,2S,7R,8S)-3-(3-Chloro-4-fluoro-benzyl)-6-hydroxy-4-oxo-3-aza-tricyclo[6.2.1.0^2,7]undec-5-en-5-yl]-1,1-dioxo-1,4-dihydro-1λ^6-thieno[2,3-e][1,2,4]thiadiazin-7-ylmethyl}-methanesulfonamide] was run?
**A.** 5 to 20 nM

**Q.** How did the EC50 turn out when `COc1cc(CN2C(=O)C(C3=NS(=O)(=O)c4c(CNS(C)(=O)=O)csc4N3)=C(O)[C@@H]3[C@H]4CC[C@H](C4)[C@@H]32)ccc1F` [Example 38, N-{3-[(1R,2S,7R,8S)-3-(4-Fluoro-3-methoxy-benzyl)-6-hydroxy-4-oxo-3-aza-tricyclo[6.2.1.0^2,7]undec-5-en-5-yl]-1,1-dioxo-1,4-dihydro-1λ^6-thieno[2,3-e][1,2,4]thiadiazin-7-ylmethyl}-methanesulfonamide] was run?
**A.** 5 to 20 nM

**Q.** For `CS(=O)(=O)NCc1csc2c1S(=O)(=O)N=C(C1=C(O)[C@@H]3[C@@H]4CC[C@@H](C4)[C@@H]3N(Cc3ccccc3)C1=O)N2` [Example 39, N-[3-((1S,2S,7R,8R)-3-Benzyl-6-hydroxy-4-oxo-3-aza-tricyclo[6.2.1.0^2,7]undec-5-en-5-yl)-1,1-dioxo-1,4-dihydro-1λ^6-thieno[2,3-e][1,2,4]thiadiazin-7-ylmethyl]-methanesulfonamide], which EC50 is on record?
**A.** 5 to 20 nM

**Q.** For `CS(=O)(=O)NCc1csc2c1S(=O)(=O)N=C(C1=C(O)[C@@H]3[C@@H]4CC[C@@H](C4)[C@@H]3N(Cc3ccc(F)cc3F)C1=O)N2` [Example 40, N-{3-[(1S,2S,7R,8R)-3-(2,4-Difluoro-benzyl)-6-hydroxy-4-oxo-3-aza-tricyclo[6.2.1.0^2,7]undec-5-en-5-yl]-1,1-dioxo-1,4-dihydro-1λ^6-thieno[2,3-e][1,2,4]thiadiazin-7-ylmethyl}-methanesulfonamide], which EC50 is on record?
**A.** 20 to 100 nM
